Test results taken from patent US6159979A, “Bicyclic aryl or a bicyclic heterocyclic ring containing compounds having a combined 5HT1A, 5HT1B and 5HT1D receptor antagonistic activity” (SmithKline Beecham p.l.c., priority 1997, dated 2000).

What was measured:
[1] = biological target: T1, 5-HT1A receptors (Homo sapiens, UniProt P08908); assay: 5-HT1A receptor binding ([3H]-8-OH DPAT, HEK 293 cell homogenate); details: HEK 293 cells expressing 5-HT1A receptors; [3H]-8-OH DPAT (1nM); pH 7.7, 37° C., 45 minutes; read-out: pKi values at 5-HT1A (converted)
T1 construct: expressed in transfected cells; host or cells: HEK 293
T1 sequence (P08908 1-422): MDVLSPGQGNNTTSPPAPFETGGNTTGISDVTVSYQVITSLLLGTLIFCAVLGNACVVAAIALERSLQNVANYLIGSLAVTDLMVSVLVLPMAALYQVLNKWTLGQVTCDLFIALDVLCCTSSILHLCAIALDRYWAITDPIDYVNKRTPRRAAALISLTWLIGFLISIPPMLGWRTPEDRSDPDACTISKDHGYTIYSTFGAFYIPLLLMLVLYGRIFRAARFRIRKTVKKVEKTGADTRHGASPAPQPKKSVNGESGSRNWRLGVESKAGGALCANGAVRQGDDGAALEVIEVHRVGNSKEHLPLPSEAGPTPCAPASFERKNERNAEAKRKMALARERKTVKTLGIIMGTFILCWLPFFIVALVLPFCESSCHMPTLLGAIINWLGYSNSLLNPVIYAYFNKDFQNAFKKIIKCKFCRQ
Description: (§1) 5-HT1A, 5-HT1B and 5-HT1D Receptor Binding
(§2) HEK 293 cells expressing 5-HT1A receptors (4×10^7 /ml) were homogenised in Tris buffer and stored in 1 ml aliquots. CHO cells expressing 5-HT1B receptors (4×10^7 cells/ml) were homogenised in Tris buffer and stored in 1.5 ml aliquots. CHO cells expressing 5-HT1D receptors (0.563×10^8 /ml) were homogenised in Tris buffer and stored in 1 ml aliquots.
(§3) 0.4 ml of a cell suspension was incubated with [^3 H]-5-HT (4nM) for 5-HT1B/1D receptors and [^3 H]-8-OH DPAT (1nM) for 5-HT1A receptors in Tris Mg HCl buffer (pH 7.7) and test drug, at 37° C. for 45 minutes. Each test drug was tested at 10 concentrations (0.01 mM to 0.3 nM final concentration), with non-specific binding defined using 0.01 mM 5-HT. The total assay volume was 0.5 ml. Incubation was stopped by rapid filtration using a Packard Filtermate (filters pre-soaked in 0.3% polyethylenimine) and radioactivity measured by Topcount scintillation counting. pKi values were calculated from the IC50 generated by an iterative least squares curve fitting programme.

[2] = biological target: T2, 5-HT1B receptors (Homo sapiens, UniProt P28222); assay: 5-HT1B receptor binding ([3H]-5-HT, CHO cell homogenate); details: CHO cells expressing 5-HT1B receptors; [3H]-5-HT (4nM); pH 7.7, 37° C., 45 minutes; read-out: pKi values at 5-HT1B (converted)
T2 construct: expressed in transfected cells; host or cells: CHO
Description: as §1, §2, §3

[3] = biological target: T3, 5-HT1D receptors (Homo sapiens, UniProt P28221); assay: 5-HT1D receptor binding ([3H]-5-HT, CHO cell homogenate); details: CHO cells expressing 5-HT1D receptors; [3H]-5-HT (4nM); pH 7.7, 37° C., 45 minutes; read-out: pKi values at 5-HT1D (converted)
T3 construct: expressed in transfected cells; host or cells: CHO
Description: as §1, §2, §3

T3 sequence (P28221 whole entry): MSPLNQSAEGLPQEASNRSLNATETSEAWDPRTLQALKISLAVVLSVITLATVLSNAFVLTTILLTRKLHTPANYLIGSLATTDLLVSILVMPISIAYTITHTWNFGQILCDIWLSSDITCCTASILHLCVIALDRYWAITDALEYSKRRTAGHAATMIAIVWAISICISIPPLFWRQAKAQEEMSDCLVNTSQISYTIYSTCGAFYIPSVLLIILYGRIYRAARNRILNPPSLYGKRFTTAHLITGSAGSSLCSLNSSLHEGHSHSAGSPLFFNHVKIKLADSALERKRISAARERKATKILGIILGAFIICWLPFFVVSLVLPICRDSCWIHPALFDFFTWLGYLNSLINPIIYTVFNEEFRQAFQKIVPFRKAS
T2 sequence (P28222 whole entry): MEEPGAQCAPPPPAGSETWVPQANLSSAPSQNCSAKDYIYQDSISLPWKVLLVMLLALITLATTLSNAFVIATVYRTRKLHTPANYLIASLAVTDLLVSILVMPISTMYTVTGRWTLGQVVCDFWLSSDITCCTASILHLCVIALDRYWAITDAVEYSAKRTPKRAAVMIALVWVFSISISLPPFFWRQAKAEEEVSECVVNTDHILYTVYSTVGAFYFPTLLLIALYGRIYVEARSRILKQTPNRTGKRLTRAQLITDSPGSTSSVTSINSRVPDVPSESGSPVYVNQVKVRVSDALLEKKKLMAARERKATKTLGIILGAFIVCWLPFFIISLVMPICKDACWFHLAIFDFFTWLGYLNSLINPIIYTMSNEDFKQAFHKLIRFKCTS

Row | Ki [1] | Ki [2] | Ki [3] | SMILES
1 | < 10 nM | < 10 nM | < 10 nM | COc1ccc(NC(=O)Cc2ccc(-c3cccnc3)c3ccccc23)cc1N1CCN(C)CC1 [Example 28, N-[4-Methoxy-3-(4-methylpiperazin-1-yl)phenyl]-4-(pyridin-3-yl)naphth-1-ylacetamide]
2 | < 10 nM | < 10 nM | < 10 nM | COc1ccc(NC(=O)Cc2ccc(-c3ccncc3)c3ccccc23)cc1N1CCN(C)CC1 [Example 10, N-[4-Methoxy-3-(4-methylpiperazin-1-yl)phenyl]-4-(pyridin-4-yl)naphth-1-ylacetamide]
3 | < 10 nM | < 10 nM | < 10 nM | CN1CCN(c2cc(NC(=O)Cc3ccc(-c4ccncc4)c4ccccc34)ccc2Br)CC1 [Example 38, N-[4-Bromo-3-(4-methylpiperazin-1-yl)phenyl]-4-(pyridin-4-yl)naphth-1-ylacetamide]

The remaining lines, values behind:

Row | SMILES | Ki [1] | Ki [2] | Ki [3]
4 | CN1CCN(c2cc(NC(=O)Nc3ccc(-c4ccncc4)c4ccccc34)ccc2Cl)CC1 [Example 11, N-[4-Chloro-3-(4-methylpiperazin-1-yl)phenyl]-N'-[4-(pyridin-4-yl)naphth-1-yl]urea] | < 10 nM | < 10 nM | < 10 nM
5 | COc1ccc(NC(=O)Nc2cccc3c(-c4ccccc4)cccc23)cc1N1CCN(C)CC1 [Example 33, N-[4-Methoxy-3-(4-methylpiperazin-1-yl)phenyl]-N'-[5-phenylnaphth-1-yl]urea] | < 10 nM | < 10 nM | < 10 nM
6 | COc1ccc(NC(=O)Nc2cccc3c(-c4cccc(C(C)=O)c4)cccc23)cc1N1CCN(C)CC1 [Example 40, N-[5-(3-Acetylphenyl)naphth-1-yl]-N'-[4-methoxy-3-(4-methylpiperazin-1-yl)phenyl]urea] | < 10 nM | < 10 nM | < 10 nM
